Several values for one entry are separate records, joined by “and”; a condition that tells them apart may be missing. Equal entries are not always repeated.
Assay: molar heat capacity at constant pressure
Conditions: 101.33 kPa, Small sample (50 mg) DSC

O=[N+]([O-])[O-].O=[N+]([O-])[O-].O=[N+]([O-])[O-].O=[N+]([O-])[O-].[K+].[K+].[Mg+2] [bis-potassium magnesium nitrate]
Conditions	molar heat capacity at constant pressure
461 K, Crystal 1	606.9 J/K/mol
462 K, Crystal 1	680.8 J/K/mol
463 K, Crystal 1	806.8 J/K/mol
464 K, Crystal 1	1030.1 J/K/mol
465 K, Crystal 1	1503.6 J/K/mol
466 K, Crystal 1	2552.2 J/K/mol
467 K, Crystal 1	4003 J/K/mol
469 K, Liquid	2955.4 J/K/mol
470 K, Liquid	2419.9 J/K/mol
471 K, Liquid	1683.9 J/K/mol
472 K, Liquid	1106.4 J/K/mol
473 K, Liquid	770 J/K/mol
474 K, Liquid	542.5 J/K/mol
475 K, Liquid	510 J/K/mol
476 K, Liquid	480.6 J/K/mol
477 K, Liquid	469 J/K/mol
478 K, Liquid	455.6 J/K/mol
478.15 K, Liquid	463.8 J/K/mol
479 K, Liquid	462.4 J/K/mol
480 K, Liquid	462.4 J/K/mol
481 K, Liquid	462.4 J/K/mol
482 K, Liquid	462.6 J/K/mol
483 K, Liquid	462.8 J/K/mol
484 K, Liquid	463 J/K/mol
485 K, Liquid	459.2 J/K/mol and 463.2 J/K/mol
486 K, Liquid	463.3 J/K/mol
487 K, Liquid	463.4 J/K/mol
488 K, Liquid	463.6 J/K/mol
489 K, Liquid	463.8 J/K/mol
490 K, Liquid	463.9 J/K/mol
491 K, Liquid	464.1 J/K/mol
492 K, Liquid	464.6 J/K/mol
493 K, Liquid	464.6 J/K/mol
494 K, Liquid	464.9 J/K/mol
495 K, Liquid	465.2 J/K/mol
496 K, Liquid	465.5 J/K/mol
497 K, Liquid	465.6 J/K/mol
498 K, Liquid	465.8 J/K/mol
499 K, Liquid	466 J/K/mol
500 K, Liquid	466.2 J/K/mol
501 K, Liquid	466.4 J/K/mol
502 K, Liquid	466.6 J/K/mol
503 K, Liquid	466.1 J/K/mol
504 K, Liquid	467 J/K/mol
505 K, Liquid	467.2 J/K/mol
506 K, Liquid	467.4 J/K/mol
507 K, Liquid	467 J/K/mol
508 K, Liquid	467.8 J/K/mol
509 K, Liquid	466.6 J/K/mol
510 K, Liquid	469 J/K/mol and 466.2 J/K/mol
511 K, Liquid	466.2 J/K/mol
512 K, Liquid	464.1 J/K/mol
513 K, Liquid	465.5 J/K/mol
514 K, Liquid	464.5 J/K/mol
515 K, Liquid	471.8 J/K/mol
516 K, Liquid	470.4 J/K/mol
517 K, Liquid	466.9 J/K/mol
518 K, Liquid	471.1 J/K/mol
519 K, Liquid	476.4 J/K/mol
520 K, Liquid	475.7 J/K/mol and 471.8 J/K/mol
521 K, Liquid	475.7 J/K/mol
522 K, Liquid	480.9 J/K/mol
523 K, Liquid	478.1 J/K/mol
524 K, Liquid	478.6 J/K/mol
525 K, Liquid	479.1 J/K/mol
526 K, Liquid	478.1 J/K/mol
527 K, Liquid	478.7 J/K/mol
528 K, Liquid	478.8 J/K/mol
529 K, Liquid	485.8 J/K/mol
530 K, Liquid	480.6 J/K/mol
531 K, Liquid	474.6 J/K/mol
532 K, Liquid	475.7 J/K/mol
533 K, Liquid	476 J/K/mol
534 K, Liquid	477.4 J/K/mol
535 K, Liquid	483.4 J/K/mol and 478.8 J/K/mol
536 K, Liquid	480.6 J/K/mol
537 K, Liquid	481.3 J/K/mol
538 K, Liquid	483.4 J/K/mol
539 K, Liquid	484.4 J/K/mol
540 K, Liquid	486.5 J/K/mol
541 K, Liquid	486.9 J/K/mol
542 K, Liquid	487.6 J/K/mol
543 K, Liquid	489 J/K/mol
544 K, Liquid	490.7 J/K/mol
545 K, Liquid	491.8 J/K/mol
546 K, Liquid	493.5 J/K/mol
547 K, Liquid	494.9 J/K/mol
548 K, Liquid	495.6 J/K/mol
549 K, Liquid	496.7 J/K/mol
550 K, Liquid	498.4 J/K/mol
551 K, Liquid	499.5 J/K/mol
552 K, Liquid	500.9 J/K/mol
553 K, Liquid	502.3 J/K/mol
554 K, Liquid	503 J/K/mol
555 K, Liquid	504.4 J/K/mol
556 K, Liquid	505.8 J/K/mol
557 K, Liquid	506.5 J/K/mol
558 K, Liquid	508.2 J/K/mol
559 K, Liquid	508.9 J/K/mol
560 K, Liquid	510.3 J/K/mol
561 K, Liquid	511.4 J/K/mol
562 K, Liquid	512.4 J/K/mol
563 K, Liquid	513.1 J/K/mol
564 K, Liquid	514.2 J/K/mol
565 K, Liquid	515.2 J/K/mol
566 K, Liquid	517 J/K/mol
567 K, Liquid	518 J/K/mol
568 K, Liquid	518.4 J/K/mol
569 K, Liquid	518.4 J/K/mol
570 K, Liquid	519.1 J/K/mol
571 K, Liquid	519.4 J/K/mol
572 K, Liquid	518.4 J/K/mol
573 K, Liquid	519.1 J/K/mol
574 K, Liquid	519.1 J/K/mol
575 K, Liquid	521.4 J/K/mol and 519.4 J/K/mol
576 K, Liquid	519.8 J/K/mol
577 K, Liquid	518.7 J/K/mol
578 K, Liquid	511.7 J/K/mol
579 K, Liquid	512.8 J/K/mol
580 K, Liquid	514.2 J/K/mol and 525.2 J/K/mol
581 K, Liquid	515.9 J/K/mol
582 K, Liquid	517.3 J/K/mol
583 K, Liquid	518.7 J/K/mol
584 K, Liquid	520.5 J/K/mol
585 K, Liquid	521.9 J/K/mol and 529.9 J/K/mol
586 K, Liquid	524 J/K/mol
587 K, Liquid	525.4 J/K/mol
588 K, Liquid	526.8 J/K/mol
589 K, Liquid	528.2 J/K/mol
590 K, Liquid	529.9 J/K/mol and 531.4 J/K/mol
591 K, Liquid	525.4 J/K/mol
592 K, Liquid	525.4 J/K/mol
593 K, Liquid	526.1 J/K/mol
594 K, Liquid	526.4 J/K/mol
595 K, Liquid	525.4 J/K/mol and 534.2 J/K/mol
596 K, Liquid	526.1 J/K/mol
597 K, Liquid	526.1 J/K/mol
598 K, Liquid	527.1 J/K/mol
599 K, Liquid	525.7 J/K/mol
600 K, Liquid	525 J/K/mol and 537.1 J/K/mol
601 K, Liquid	526.4 J/K/mol
602 K, Liquid	521.9 J/K/mol
603 K, Liquid	521.9 J/K/mol
604 K, Liquid	519.8 J/K/mol
605 K, Liquid	522.6 J/K/mol and 539.5 J/K/mol
606 K, Liquid	524.7 J/K/mol
607 K, Liquid	524.7 J/K/mol
608 K, Liquid	520.8 J/K/mol
609 K, Liquid	521.9 J/K/mol
610 K, Liquid	526.8 J/K/mol and 541 J/K/mol
611 K, Liquid	532 J/K/mol
612 K, Liquid	525 J/K/mol
613 K, Liquid	529.2 J/K/mol
614 K, Liquid	536.6 J/K/mol
615 K, Liquid	532 J/K/mol and 545.6 J/K/mol
616 K, Liquid	533.8 J/K/mol
617 K, Liquid	541.5 J/K/mol
618 K, Liquid	537.6 J/K/mol
619 K, Liquid	543.2 J/K/mol
620 K, Liquid	538.7 J/K/mol and 547.7 J/K/mol
621 K, Liquid	542.2 J/K/mol
622 K, Liquid	543.6 J/K/mol
623 K, Liquid	544.3 J/K/mol
623.15 K, Liquid	543.9 J/K/mol and 552.9 J/K/mol
